Assay results as given in EP4660184A1 (Eurofarma Laboratórios S.A., priority 2023, dated 2024).

Assays:
[1] = biological target: T1, human sodium channels Nav 1.8 (Homo sapiens, UniProt Q9Y5Y9); assay: Automated whole-cell voltage-clamp (ScreenPatch 384P) sodium current block, Nav 1.8; type: cell-based; settings: CHO cells stably expressing human Nav 1.8; inactivation step -40 mV for 8 seconds, test step 10 mV (TP1A); exposure at least five minutes; room temperature; mean if two or more assays; read-out: Nav1.8 IC50
T1 construct: expressed in transfected cells
How it was run: (§1)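 CHO cells stably expressing human Nav1.7 or Nav1.8 were recorded by automated whole-cell clamp with ≥5 min compound exposure, eight concentrations, at room temperature, pH 7.4 external. From -100 mV, cells were held at -40 mV for 8 s, then -100 mV for 20 ms, then a test pulse at 10 mV (Nav1.8) or 0 mV (Nav1.7), at 0.05 Hz. Peak current % block was fitted to give IC50, averaged across assays.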

[2] = biological target: T2, human sodium channels Nav 1.7 (Homo sapiens, UniProt Q15858); assay: Automated whole-cell voltage-clamp (ScreenPatch 384P) sodium current block, Nav 1.7; type: cell-based; settings: CHO cells stably expressing human Nav 1.7; inactivation step -40 mV for 8 seconds, test step 0 mV (TP1A); exposure at least five minutes; room temperature; mean if two or more assays; read-out: Nav1.7 IC50
T2 construct: expressed in transfected cells
How it was run: as §1

T2 sequence (Q15858 whole entry): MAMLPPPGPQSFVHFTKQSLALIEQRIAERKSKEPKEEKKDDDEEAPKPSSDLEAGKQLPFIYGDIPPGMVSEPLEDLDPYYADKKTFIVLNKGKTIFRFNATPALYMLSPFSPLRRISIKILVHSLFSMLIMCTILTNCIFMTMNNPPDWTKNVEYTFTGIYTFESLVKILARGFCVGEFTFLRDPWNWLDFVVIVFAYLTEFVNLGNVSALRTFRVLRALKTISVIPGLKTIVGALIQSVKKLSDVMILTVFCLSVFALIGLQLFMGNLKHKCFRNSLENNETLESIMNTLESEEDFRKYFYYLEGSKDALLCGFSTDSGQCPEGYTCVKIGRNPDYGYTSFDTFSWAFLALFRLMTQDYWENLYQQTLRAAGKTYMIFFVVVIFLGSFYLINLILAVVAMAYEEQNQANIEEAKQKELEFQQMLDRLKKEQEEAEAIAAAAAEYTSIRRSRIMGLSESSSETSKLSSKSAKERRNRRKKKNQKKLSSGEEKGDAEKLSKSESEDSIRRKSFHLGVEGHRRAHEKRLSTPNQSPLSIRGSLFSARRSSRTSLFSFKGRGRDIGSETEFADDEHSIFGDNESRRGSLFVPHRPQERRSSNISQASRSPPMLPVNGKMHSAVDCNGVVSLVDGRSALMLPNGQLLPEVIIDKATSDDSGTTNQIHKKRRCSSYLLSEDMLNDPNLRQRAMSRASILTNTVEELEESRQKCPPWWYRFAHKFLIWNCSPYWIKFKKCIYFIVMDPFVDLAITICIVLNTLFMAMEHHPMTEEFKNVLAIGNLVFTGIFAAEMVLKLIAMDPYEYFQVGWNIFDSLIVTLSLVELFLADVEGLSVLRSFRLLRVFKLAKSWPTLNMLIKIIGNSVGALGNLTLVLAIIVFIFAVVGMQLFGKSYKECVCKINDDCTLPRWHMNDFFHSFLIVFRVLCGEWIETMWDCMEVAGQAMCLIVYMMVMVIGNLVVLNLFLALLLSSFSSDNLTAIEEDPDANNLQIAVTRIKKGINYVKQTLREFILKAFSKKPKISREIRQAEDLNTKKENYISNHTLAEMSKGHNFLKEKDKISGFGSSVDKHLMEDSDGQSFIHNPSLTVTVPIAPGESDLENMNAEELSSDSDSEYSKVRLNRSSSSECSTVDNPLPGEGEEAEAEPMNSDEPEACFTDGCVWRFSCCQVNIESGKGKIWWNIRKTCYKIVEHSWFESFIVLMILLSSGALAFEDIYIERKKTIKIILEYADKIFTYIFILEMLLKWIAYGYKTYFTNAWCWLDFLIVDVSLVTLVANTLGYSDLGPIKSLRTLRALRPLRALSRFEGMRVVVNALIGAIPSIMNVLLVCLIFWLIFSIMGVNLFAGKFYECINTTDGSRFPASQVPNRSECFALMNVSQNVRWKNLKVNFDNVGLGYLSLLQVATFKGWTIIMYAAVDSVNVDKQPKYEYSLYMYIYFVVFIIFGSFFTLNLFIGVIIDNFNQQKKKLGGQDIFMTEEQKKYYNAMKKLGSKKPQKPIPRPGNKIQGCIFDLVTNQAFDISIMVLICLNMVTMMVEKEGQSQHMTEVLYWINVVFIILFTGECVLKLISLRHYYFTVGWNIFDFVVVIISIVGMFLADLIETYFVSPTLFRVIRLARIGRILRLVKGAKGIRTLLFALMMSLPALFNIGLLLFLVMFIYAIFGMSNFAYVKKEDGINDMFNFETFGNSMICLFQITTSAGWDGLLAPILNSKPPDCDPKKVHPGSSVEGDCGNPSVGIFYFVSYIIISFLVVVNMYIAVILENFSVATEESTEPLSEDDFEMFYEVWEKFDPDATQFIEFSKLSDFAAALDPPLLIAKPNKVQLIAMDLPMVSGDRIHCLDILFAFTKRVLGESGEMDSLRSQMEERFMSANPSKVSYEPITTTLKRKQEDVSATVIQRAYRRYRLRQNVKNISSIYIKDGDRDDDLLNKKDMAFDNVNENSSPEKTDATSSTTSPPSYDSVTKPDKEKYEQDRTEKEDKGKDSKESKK
T1 sequence (Q9Y5Y9 whole entry): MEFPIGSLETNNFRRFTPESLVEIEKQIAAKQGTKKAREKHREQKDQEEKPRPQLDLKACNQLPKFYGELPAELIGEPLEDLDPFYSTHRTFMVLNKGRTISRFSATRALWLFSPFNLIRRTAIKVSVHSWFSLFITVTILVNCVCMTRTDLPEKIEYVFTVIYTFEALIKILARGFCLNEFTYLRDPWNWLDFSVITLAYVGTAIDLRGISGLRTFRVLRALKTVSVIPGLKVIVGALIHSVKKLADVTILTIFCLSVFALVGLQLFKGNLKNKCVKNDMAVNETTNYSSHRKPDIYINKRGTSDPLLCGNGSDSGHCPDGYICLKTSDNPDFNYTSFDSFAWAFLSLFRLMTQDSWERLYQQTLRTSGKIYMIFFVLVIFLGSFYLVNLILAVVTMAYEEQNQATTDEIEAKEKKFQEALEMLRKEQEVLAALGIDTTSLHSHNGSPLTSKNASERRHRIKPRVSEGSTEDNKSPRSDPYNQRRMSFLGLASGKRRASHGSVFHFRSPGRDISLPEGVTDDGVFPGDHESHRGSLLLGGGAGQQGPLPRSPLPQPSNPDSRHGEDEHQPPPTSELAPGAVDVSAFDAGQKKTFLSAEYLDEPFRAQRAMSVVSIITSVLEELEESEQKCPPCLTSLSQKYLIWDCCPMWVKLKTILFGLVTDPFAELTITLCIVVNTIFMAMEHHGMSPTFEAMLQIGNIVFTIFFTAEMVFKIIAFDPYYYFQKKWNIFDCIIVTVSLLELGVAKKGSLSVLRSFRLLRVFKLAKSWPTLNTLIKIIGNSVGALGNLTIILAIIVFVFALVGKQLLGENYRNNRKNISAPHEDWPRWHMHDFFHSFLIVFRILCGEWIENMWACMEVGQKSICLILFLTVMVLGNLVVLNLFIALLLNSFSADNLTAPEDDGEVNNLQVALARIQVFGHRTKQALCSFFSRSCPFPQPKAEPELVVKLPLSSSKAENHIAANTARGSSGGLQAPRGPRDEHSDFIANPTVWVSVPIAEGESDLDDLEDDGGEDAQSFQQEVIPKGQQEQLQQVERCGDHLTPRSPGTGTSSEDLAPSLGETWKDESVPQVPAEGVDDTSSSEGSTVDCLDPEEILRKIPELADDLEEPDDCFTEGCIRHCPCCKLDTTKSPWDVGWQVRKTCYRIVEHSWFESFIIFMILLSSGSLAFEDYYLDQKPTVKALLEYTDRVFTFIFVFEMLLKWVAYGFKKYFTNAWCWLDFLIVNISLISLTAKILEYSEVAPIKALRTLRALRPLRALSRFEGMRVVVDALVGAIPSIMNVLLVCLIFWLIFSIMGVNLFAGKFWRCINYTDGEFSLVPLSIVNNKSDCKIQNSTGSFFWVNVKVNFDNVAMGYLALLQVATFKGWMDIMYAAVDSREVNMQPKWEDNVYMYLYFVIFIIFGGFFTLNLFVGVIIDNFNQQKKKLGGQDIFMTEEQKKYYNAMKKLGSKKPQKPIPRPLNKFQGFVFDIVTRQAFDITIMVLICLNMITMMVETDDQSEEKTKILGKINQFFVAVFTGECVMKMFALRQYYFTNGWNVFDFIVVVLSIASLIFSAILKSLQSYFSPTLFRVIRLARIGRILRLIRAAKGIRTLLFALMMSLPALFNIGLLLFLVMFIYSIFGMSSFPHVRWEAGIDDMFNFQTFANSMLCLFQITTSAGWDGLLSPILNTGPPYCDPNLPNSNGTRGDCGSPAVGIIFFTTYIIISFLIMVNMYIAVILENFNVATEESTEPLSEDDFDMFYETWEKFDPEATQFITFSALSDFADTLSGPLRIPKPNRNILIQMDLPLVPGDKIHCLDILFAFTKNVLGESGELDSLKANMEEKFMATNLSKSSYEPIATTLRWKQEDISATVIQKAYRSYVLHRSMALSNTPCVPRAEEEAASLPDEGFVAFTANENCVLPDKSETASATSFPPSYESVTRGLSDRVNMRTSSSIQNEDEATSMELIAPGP

IC50 [1]	IC50 [2]	Compound
< 500 nM	> 1000 nM	COc1cncc(CONC(=O)c2cncc(-c3ccc(OC(F)F)cc3)n2)c1 [Compound 28, 6-(4-(difluoromethoxy)phenyl)-N-((5-methoxypyridine-3-yl)methoxy)pyrazine-2-carboxamide]
< 500 nM	> 1000 nM	CCOc1ccc(-c2cncc(C(=O)NOCc3cccc(O)c3)n2)cn1 [Compound 35, 6-(6-ethoxypyridine-3-yl)-N-((3-hydroxybenzyl)oxy)pyrazine-2-carboxamide]
< 500 nM	> 1000 nM	CCOc1ccc(-c2cncc(C(=O)NOCc3cc(C(C)N)ccc3F)n2)cc1 (stereo not drawn) [Compound 17, N-((5-(1-aminoethyl)-2-fluorobenzyl)oxy)-6-(4-ethoxyphenyl)pyrazine-2-carboxamide]
